Consider 2 molecules from paper PMC6401105, “Dual role of the Anopheles coluzzii Venus Kinase Receptor in both larval growth and immunity” (Scientific Reports, 2019).

Structures are written as SMILES.

Test [1] concerns the target T1, Anopheles VKR (AgVKR; VKR^WT) (Anopheles gambiae, UniProt C5H7S1).
T1 sequence (C5H7S1 26-1465): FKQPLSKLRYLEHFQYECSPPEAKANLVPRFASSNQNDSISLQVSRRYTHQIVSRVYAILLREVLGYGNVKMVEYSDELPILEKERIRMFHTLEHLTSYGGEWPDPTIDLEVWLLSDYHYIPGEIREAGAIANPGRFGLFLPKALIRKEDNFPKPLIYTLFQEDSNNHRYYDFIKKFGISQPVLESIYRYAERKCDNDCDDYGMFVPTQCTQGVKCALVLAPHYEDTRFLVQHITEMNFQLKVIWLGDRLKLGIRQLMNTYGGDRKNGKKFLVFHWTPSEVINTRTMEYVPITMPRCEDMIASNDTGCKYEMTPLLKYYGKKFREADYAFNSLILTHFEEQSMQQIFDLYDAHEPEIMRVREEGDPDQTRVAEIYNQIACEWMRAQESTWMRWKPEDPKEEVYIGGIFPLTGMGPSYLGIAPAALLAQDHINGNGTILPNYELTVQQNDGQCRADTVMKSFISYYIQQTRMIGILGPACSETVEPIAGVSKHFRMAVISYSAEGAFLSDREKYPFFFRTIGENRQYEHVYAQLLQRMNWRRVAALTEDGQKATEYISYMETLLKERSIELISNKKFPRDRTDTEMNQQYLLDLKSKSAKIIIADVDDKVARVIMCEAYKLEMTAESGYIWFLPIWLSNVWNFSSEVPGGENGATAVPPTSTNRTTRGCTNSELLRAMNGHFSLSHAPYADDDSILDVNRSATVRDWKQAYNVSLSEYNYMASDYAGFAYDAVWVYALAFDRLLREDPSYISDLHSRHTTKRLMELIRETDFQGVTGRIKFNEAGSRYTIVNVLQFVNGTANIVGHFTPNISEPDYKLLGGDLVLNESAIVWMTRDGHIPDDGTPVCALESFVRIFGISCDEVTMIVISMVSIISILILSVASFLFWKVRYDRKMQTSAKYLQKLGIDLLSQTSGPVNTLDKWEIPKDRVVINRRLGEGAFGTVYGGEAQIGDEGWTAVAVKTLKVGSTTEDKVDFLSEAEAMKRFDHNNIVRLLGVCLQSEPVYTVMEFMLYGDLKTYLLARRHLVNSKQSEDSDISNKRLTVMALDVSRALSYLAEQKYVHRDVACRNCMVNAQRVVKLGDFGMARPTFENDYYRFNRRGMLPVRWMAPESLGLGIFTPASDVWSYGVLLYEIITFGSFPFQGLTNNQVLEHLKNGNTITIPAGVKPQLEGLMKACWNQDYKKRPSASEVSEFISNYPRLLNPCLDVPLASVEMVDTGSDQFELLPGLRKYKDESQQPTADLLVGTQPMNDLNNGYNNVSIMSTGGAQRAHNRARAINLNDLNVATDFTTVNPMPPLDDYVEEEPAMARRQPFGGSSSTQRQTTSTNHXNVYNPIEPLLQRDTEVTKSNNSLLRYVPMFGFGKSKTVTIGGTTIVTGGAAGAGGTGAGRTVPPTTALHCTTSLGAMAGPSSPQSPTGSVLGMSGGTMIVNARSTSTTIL
Nature of the test: GVBD of Xenopus oocytes expressing VKR; anti-phosphotyrosine Western blot. To be noted: agonist; VFT domain; ND96 medium pH 7.4, 19 °C, 18 h; not an EC50. The format is cell-based. For orientation: Immunoblotting shows a protein as a band on a membrane.

For test [2], the target named is T1, Anopheles VKR (AgVKR; VKR^WT). The experiment in a line: GVBD of Xenopus oocytes expressing VKR. The format is cell-based. Particulars: agonist; VFT domain; ND96 medium pH 7.4, 19 °C, 18 h; not an EC50.

On to `N=C(N)NCCC[C@H](N)C(=O)O` [L-Arg], for which the “minimal concentration to induce GVBD” value in test [1] is given as 1 µM.
For the molecule `N[C@@H](CS)C(=O)O` [L-Cys], the “minimal concentration to induce GVBD” value in test [2] was 1 mM.
